Drawing on US8258151B2, “3-aminoimidazo [1,2-A] pyridine derivatives as SGLT inhibitors” (Merck Patent GmbH, priority 2006, dated 2012), this text covers IC50 for 15 molecules.

One experiment addresses T1, SGLT1 (Homo sapiens, UniProt P13866).
T1 construct: expressed in transfected cells
T1 sequence (P13866 1-664): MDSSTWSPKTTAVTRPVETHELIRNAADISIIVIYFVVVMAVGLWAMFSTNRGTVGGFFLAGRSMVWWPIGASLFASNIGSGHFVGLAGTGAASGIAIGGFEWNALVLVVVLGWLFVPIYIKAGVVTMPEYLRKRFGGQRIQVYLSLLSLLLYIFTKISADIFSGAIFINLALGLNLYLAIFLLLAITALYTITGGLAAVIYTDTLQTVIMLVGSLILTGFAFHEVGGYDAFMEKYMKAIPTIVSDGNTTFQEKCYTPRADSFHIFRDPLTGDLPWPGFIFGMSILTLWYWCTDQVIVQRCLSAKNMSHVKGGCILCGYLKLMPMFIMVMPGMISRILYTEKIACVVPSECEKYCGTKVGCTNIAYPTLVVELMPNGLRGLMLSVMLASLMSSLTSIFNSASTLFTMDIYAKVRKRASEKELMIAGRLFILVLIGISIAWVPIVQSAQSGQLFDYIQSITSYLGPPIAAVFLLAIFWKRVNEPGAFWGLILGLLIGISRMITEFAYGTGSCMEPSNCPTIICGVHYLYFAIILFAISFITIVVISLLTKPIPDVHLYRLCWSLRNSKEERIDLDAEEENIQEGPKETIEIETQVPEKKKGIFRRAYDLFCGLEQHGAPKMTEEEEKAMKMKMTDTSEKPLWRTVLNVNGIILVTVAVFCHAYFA
The experiment is described as follows: SGLT1 activity measurement: 14C-AMG uptake in BHK cells transfected with SGLT1. To be noted: AMG 50 μM, 37° C., 90 min. The class given is cell-based. The source says: (§1) The compounds can be tested on their SGLT inhibition properties by means of BHK cells expressing SGLT1 and SGLT2. The production of the cells and the testing can be carried out as described below.
To construct the SGLT1 expression vector (KL225), the SLC5A1 gene (homologous to NM_000343) was amplified from a cDNA library using standard PCR technology and cloned over NheI/XhoI sites into pcDNA3.1 expression vector (Invitrogen) containing neomycin as a selection marker. In this vector, transcription uses the enhancer/promoter of human cytomegalovirus.
The final vector KL225 together with an additional vector containing a dihydrofolate reductase gene as a selection marker was introduced into cells. Transfection into BHK21 cells (ATCC CCL-10), cultivated in DMEM medium (GIBCO/BRL), supplemented with 10% foetal calf serum (FCS) and 20 mM glutamine, was carried out using calcium phosphate transfections according to Graham, F. L. and van der Ebb, A. J. (1973), Virology 52: 456 with 5-20 μg of uncut plasmids for 10^7 cells. Stable transfectants were selected in medium containing 1 mg/ml of G418 (GIBCO/BRL) and 20-5000 nM methotrexate as final concentration, where only cells which expressed the neomycin gene and overexpressed the dhfr gene were able to grow. After growth for 2-3 weeks, the cells were cloned (0.5 cells/well) and the clones were investigated for SGLT expression in the radioactive uptake assay. […]
(§2) A 96-well cell-based assay was developed and adapted to HTS requirements:
(§3) BHK cells (transfected with SGLT1 or SGLT2) were seeded into 96-well microtitre plates (Cultureplates, Perkin Elmer). After at least 24 h, medium was removed and the cell layer was washed with assay buffer (140 mM NaCl, 2 mM KCl, 1 mM CaCl2, 1 mM MgCl2, 10 mM HEPES, 5 mM Tris, adjusted with 1 M KOH to pH 7.4). After addition of 40 μl of assay buffer, 50 μl of AMG (50 μM for SGLT1 and 2 mM for SGLT2) in the presence or absence of compounds, the cells were incubated in a total volume of 100 μl at 37° C. for 90 min. Supernatant was removed by suction and discarded. The cells were washed and lysed by addition of 50 μl water. After 10 minutes at room temperature 200 μl Microscint 40 (Perkin Elmer) were added. The radioactivity was counted in a Topcount microplate scintillation counter (Perkin Elmer). The non-specific uptake was determined in sodium-free assay buffer (266 mM sucrose, 2 mM KCl, 1 mM CaCl2, 1 mM MgCl2, 10 mM HEPES, 5 mM Tris, adjusted with 1 M KOH to pH 7.4).

The target in another experiment is T2, SGLT2 (Homo sapiens, UniProt P31639).
T2 construct: expressed in transfected cells
T2 sequence (P31639 1-672): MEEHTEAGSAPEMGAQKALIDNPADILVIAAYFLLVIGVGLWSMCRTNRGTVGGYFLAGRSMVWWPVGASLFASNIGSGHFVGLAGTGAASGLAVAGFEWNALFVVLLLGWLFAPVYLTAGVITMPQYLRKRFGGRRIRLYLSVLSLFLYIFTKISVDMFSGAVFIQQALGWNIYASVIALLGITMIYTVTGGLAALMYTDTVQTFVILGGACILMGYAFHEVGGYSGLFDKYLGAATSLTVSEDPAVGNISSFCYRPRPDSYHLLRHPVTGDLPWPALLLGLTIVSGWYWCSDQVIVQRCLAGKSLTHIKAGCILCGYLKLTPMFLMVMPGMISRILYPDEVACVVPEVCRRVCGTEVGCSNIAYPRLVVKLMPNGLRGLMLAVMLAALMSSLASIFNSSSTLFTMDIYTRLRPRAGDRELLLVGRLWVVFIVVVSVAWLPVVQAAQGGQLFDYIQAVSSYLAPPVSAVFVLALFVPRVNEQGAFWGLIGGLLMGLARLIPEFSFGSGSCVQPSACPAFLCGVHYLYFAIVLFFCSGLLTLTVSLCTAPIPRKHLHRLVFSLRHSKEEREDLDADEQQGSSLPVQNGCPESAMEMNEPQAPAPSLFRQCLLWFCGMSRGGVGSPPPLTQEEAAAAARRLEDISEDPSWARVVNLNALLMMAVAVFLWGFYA
The experiment is described as follows: SGLT2 activity measurement: 14C-AMG uptake in BHK cells transfected with SGLT2. The class given is cell-based. As to conditions: AMG 2 mM, 37° C., 90 min.
Description: as §1
To construct the SGLT2 expression vector (KL224), the SLC5A2 gene (homologous to NM_003041) was amplified from a cDNA library using standard PCR technology and cloned over NheI/XhoI sites into PCI-neo expression vector (Promega) containing neomycin as a selection marker. In this vector, transcription used the enhancer/promoter of human cytomegalovirus and the SV40 polyadenylation signal.
The final vector KL224 together with an additional vector containing a dihydrofolate reductase gene as a selection marker was introduced into cells. Transfection into BHK21 cells (ATCC CCL-10), cultivated in DMEM medium (GIBCO/BRL), supplemented with 10% foetal calf serum (FCS) and 20 mM glutamine, was carried out using calcium phosphate transfections according to Graham, F. L. and van der Ebb, A. J. (1973), Virology 52: 456 with 5-20 μg of uncut plasmids for 10^7 cells. Stable transfectants were selected in medium containing 1 mg/ml of G418 (GIBCO/BRL) and 20-5000 nM methotrexate as final concentration, where only cells which expressed the neomycin gene and overexpressed the dhfr gene were able to grow. After growth for 2-3 weeks, the cells were cloned (0.5 cells/well) and the clones were investigated for SGLT expression in the radioactive uptake assay.
Principally, uptake of ^14C-α-methyl-D-glucopyranoside (AMG) in, for example, Xenopus oocytes injected with the corresponding cRNA has been described (for example Wen-Sen Lee et al. (1994), J. Biol. Chem. 269, 12032-12039; Guofeng You et al. (1995), J. Biol. Chem. 270, 29365-29371).
as §2, §3

The structures appear in SMILES notation. Some results are limits rather than exact numbers.

Turning to `COc1cc(C)c(-c2nc3ccc(F)cn3c2Nc2c(F)cccc2Cl)c(OCC(N)=O)c1` [Compound A248, 2-[2-(Aminocarbonylmethoxy)-4-methoxy-6-methylphenyl]-3-(2-fluoro-6-chlorophenylamino)-6-fluoroimidazo[1,2-a]pyridine], the IC50 was greater than 10000 nM against SGLT1 and 10 to 1000 nM against SGLT2.

Take `COc1cc(C)c(-c2nc3ccc(F)cn3c2Nc2c(C)cccc2C)c(OCC(N)=O)c1OC` [Compound A201, 2-[2-(Aminocarbonylmethoxy)-3,4-dimethoxy-6-methylphenyl]-3-(2,6-dimethylphenylamino)-6-fluoroimidazo[1,2-a]pyridine]: the IC50 at SGLT1 is greater than 10000 nM; at SGLT2, 1000 to 10000 nM.

`COc1cc(C)c(-c2nc3ccc(F)cn3c2Nc2c(C)cccc2OC)c(OCC(N)=O)c1` [Compound A214, 2-[2-(Aminocarbonylmethoxy)-4-methoxy-6-methylphenyl]-3-(2-methoxy-6-methylphenyl-amino)-6-fluoroimidazo[1,2-a]pyridine]: the IC50 is greater than 10000 nM against SGLT1 and 10 to 1000 nM on SGLT2.

Take `COc1cc(C)c(-c2nc3ccc(F)cn3c2Nc2c(C)cc(C)cc2[N+](=O)[O-])c(OCC(N)=O)c1` [Compound A250, 2-[2-(Aminocarbonylmethoxy)-4-methoxy-6-methylphenyl]-3-(2,4-dimethyl-6-nitrophenyl-amino)-6-fluoroimidazo[1,2-a]pyridine]: the figures for the IC50 against SGLT1 and on SGLT2 were greater than 10000 nM and 10 to 1000 nM, respectively.

As to `CCc1cccc(C)c1Nc1c(-c2ccccc2OCC(N)=O)nc2ccc(F)cn12` [Compound A174, 2-[2-(Aminocarbonylmethoxy)phenyl]-3-(2-methyl-6-ethylphenylamino)-6-fluoroimidazo-[1,2-a]pyridine], the figures for the IC50 against SGLT1 and on SGLT2 were greater than 10000 nM and 10 to 1000 nM, respectively.

As for `COc1cc(C)c(-c2nc3c(F)cc(F)cn3c2Nc2c(Cl)cc(F)cc2Cl)c(OCC(N)=O)c1` [Compound A225, 2-[2-(Aminocarbonylmethoxy)-4-methoxy-6-methylphenyl]-3-(4-fluoro-2,6-dichlorophenyl-amino)-6,8-difluoroimidazo[1,2-a]pyridine], the IC50 at SGLT1 is 1000 to 10000 nM; on SGLT2, 10 to 1000 nM.

Consider `COc1ccc(-c2nc3ccc(F)cn3c2Nc2c(C)cc(F)cc2C)c(OCC(N)=O)c1` [Compound A212, 2-[2-(Aminocarbonylmethoxy)-4-methoxy-phenyl]-3-(2,6-dimethyl-4-fluorophenylamino)-6-fluoroimidazo[1,2-a]pyridine], for which the IC50 is greater than 10000 nM against SGLT1 and 10 to 1000 nM against SGLT2.

On to `COc1cc(C)c(-c2nc3ccc(F)cn3c2Nc2c(F)cc(Br)cc2F)c(OCC(N)=O)c1` [Compound A252, 2-[2-(Aminocarbonylmethoxy)-4-methoxy-6-methylphenyl]-3-(2,6-difluoro-4-bromophenyl-amino)-6-fluoroimidazo[1,2-a]pyridine], for which the IC50 on SGLT1 and at SGLT2 was 1000 to 10000 nM each time.

As for `Cc1cccc(C)c1Nc1c(-c2c(C)cccc2OCC(N)=O)nc2ccc(F)cn12` [Compound A2, 2-[2-(aminocarbonylmethoxy)-6-methylphenyl]-3-(2,6-dimethylphenylamino)-6-fluoroimidazo[1,2-a]pyridine], the results for the IC50 against SGLT1 and on SGLT2 were 1000 to 10000 nM and 10 to 1000 nM, respectively.

Turning to `COc1cc(C)c(-c2nc3ccc(F)cn3c2Nc2c(F)cccc2F)c(OCC(N)=O)c1` [Compound A219, 2-[2-(Aminocarbonylmethoxy)-4-methoxy-6-methylphenyl]-3-(2,6-difluorophenylamino)-6-fluoroimidazo[1,2-a]pyridine], the IC50 at SGLT1 is 1000 to 10000 nM; on SGLT2, 10 to 1000 nM.

In the case of `Cc1cccc(C)c1Nc1c(-c2ccccc2OCC(N)=O)nc2cccc(Cl)n12` [Compound A12, 2-[2-(Aminocarbonylmethoxy)phenyl]-3-(2,6-dimethylphenylamino)-5-chloroimidazo[1,2-a]-pyridine], the IC50 against SGLT2 fell in the range of 1000 to 10000 nM.

Consider `COc1cc(C)c(-c2nc3c(O)cccn3c2Nc2c(C)cccc2C)c(OCC(N)=O)c1` [Compound A193, 2-[2-(Aminocarbonylmethoxy)-4-methoxy-6-methylphenyl]-3-(2,6-dimethylphenylamino)-8-hydroxyimidazo[1,2-a]pyridine], for which the IC50 against SGLT2 is 1000 to 10000 nM.

In turn, `CCc1cc(OC)cc(OCC(N)=O)c1-c1nc2ccc(C(=O)O)cn2c1Nc1c(C)cccc1C` [Compound A223, 2-[2-(Aminocarbonylmethoxy)-4-methoxy-6-ethylphenyl]-3-(2,6-dimethylphenylamino)-6-carboxyimidazo[1,2-a]pyridine] showed an IC50 on SGLT2 of 1000 to 10000 nM.

In turn, `Cc1cccc(C)c1Nc1c(-c2c(C)cc(OCCN(C)C)cc2OCC(N)=O)nc2ccccn12` [Compound A119, 2-[2-(Aminocarbonylmethoxy)-4-(2-dimethyl-aminoethoxy)-6-methylphenyl]-3-(2,6-dimethyl-phenylamino)imidazo[1,2-a]pyridine] registered an IC50 against SGLT2 of 1000 to 10000 nM.

Turning to `COc1cc(OCC(N)=O)c(-c2nc3ccc(F)cn3c2Nc2c(C)cccc2C)cc1OC` [Compound A189, 2-[2-(Aminocarbonylmethoxy)-4,5-dimethoxy-phenyl]-3-(2,6-dimethylphenylamino)-6-fluoro-imidazo[1,2-a]pyridine], the IC50 at SGLT2 was in the range of 1000 to 10000 nM.

One may read the IC50 as the midpoint of a concentration-inhibition curve. Low readings indicate higher potency, high ones lower potency.
